Data as given in patent publication US7553856B2, “Crystalline form of omeprazole” (Lek Pharmaceuticals d.d., priority 2001, dated 2009).

Key:
[1] = compared to previously-known omeprazole form B; cited from earlier work
[2] = Stability testing of omeprazole samples under stress/accelerated aging, evaluated by absorbance (Ph Eur); type: physicochemical; settings: omeprazole form C obtained by the disclosed process; no numerical data printed
Method: The stability of omeprazole samples was determined by a standard procedure for testing the substances in pharmaceutical industry (CPMP/ICH/2736/99). […] Determination of absorbance, measured according to Ph Eur method (PhEur 3 Suppl 2000), is used as the criterion for evaluation of the sample quality during stability testing.

Row | SMILES | hygroscopicity [1] | photostability [1] | thermodynamic stability [1] | stability according to the standard protocol for characterization of stability of a pharmaceutical active substance [2]
1 | COc1ccc2[nH]c([S+]([O-])Cc3ncc(C)c(OC)c3C)nc2c1 (stereo not shown) [omeprazole form A, 5-methoxy-2-[[(4-methoxy-3,5-dimethyl-2-pyridinyl)methyl]sulfinyl]-1H-benzimidazole] | better | better | better | 
2 | COc1ccc2[nH]c([S+]([O-])Cc3ncc(C)c(OC)c3C)nc2c1 (stereo not shown) [omeprazole form C, 5-methoxy-2-[[(4-methoxy-3,5-dimethyl-2-pyridinyl)methyl]sulfinyl]-1H-benzimidazole] |  |  |  | stable according to the standard protocol
